Reference: patent US10131652B2, “Pyrimidinyloxy benzene derivatives as herbicides” (E. I. DU PONT DE NEMOURS AND COMPANY, priority 2014, dated 2018)
Where two headings read alike, the source gives them in different places.

Legend:
Assay in all cases: Test E pre-/postemergence plant response
Type in all cases: in vivo
[1] = test system: field violet (Viola arvensis); conditions: scale 0 to 100, read-out: Plant response rating, Field Violet; for pest or weed control at 16 g/ha: 16 g ai/ha; for pest or weed control at 31 g/ha: 31 g ai/ha; for pest or weed control at 62 g/ha: 62 g ai/ha; for pest or weed control at 125 g/ha: 125 g ai/ha
Summary of the method: (§1)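 Pre-emergence: seeds sown in silt loam soil and sprayed with test chemicals in a non-phytotoxic solvent/surfactant mix. Post-emergence: plants at 2–18 cm (1- to 4-leaf stage) in peat/vermiculite medium treated with the same formulation. Visual rating versus controls after 7–21 days, 0 (no effect) to 100 (complete control).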

[2] = test system: field poppy (Papaver rhoeas); conditions: scale 0 to 100, read-out: Plant response rating, Field Poppy; for pest or weed control at 16 g/ha: 16 g ai/ha; for pest or weed control at 31 g/ha: 31 g ai/ha; for pest or weed control at 62 g/ha: 62 g ai/ha; for pest or weed control at 125 g/ha: 125 g ai/ha
Summary of the method: as §1

[3] = test system: speedwell (bird's-eye speedwell, Veronica persica); conditions: scale 0 to 100, read-out: Plant response rating, Speedwell; for pest or weed control at 16 g/ha: 16 g ai/ha; for pest or weed control at 62 g/ha: 62 g ai/ha; for pest or weed control at 125 g/ha: 125 g ai/ha
Summary of the method: as §1

[4] = test system: wild buckwheat (Polygonum convolvulus); conditions: Fallopia convolvulus, scale 0 to 100, read-out: Plant response rating, Buckwheat, Wild; for pest or weed control at 16 g/ha: 16 g ai/ha; for pest or weed control at 31 g/ha: 31 g ai/ha; for pest or weed control at 62 g/ha: 62 g ai/ha; for pest or weed control at 125 g/ha: 125 g ai/ha
Summary of the method: as §1

[5] = test system: chickweed (common chickweed, Stellaria media); conditions: scale 0 to 100, read-out: Plant response rating, Chickweed; for pest or weed control at 16 g/ha: 16 g ai/ha; for pest or weed control at 31 g/ha: 31 g ai/ha; for pest or weed control at 62 g/ha: 62 g ai/ha; for pest or weed control at 125 g/ha: 125 g ai/ha
Summary of the method: as §1

[6] = test system: spring barley (Hordeum vulgare); conditions: for plant injury at 16 g/ha: 16 g ai/ha; for plant injury at 31 g/ha: 31 g ai/ha; for plant injury at 62 g/ha: 62 g ai/ha; for plant injury at 125 g/ha: 125 g ai/ha
Summary of the method: as §1

[7] = test system: chamomile (scentless chamomile, Matricaria inodora); conditions: Tripleurospermum inodorum, scale 0 to 100, read-out: Plant response rating, Chamomile; for pest or weed control at 16 g/ha: 16 g ai/ha; for pest or weed control at 31 g/ha: 31 g ai/ha; for pest or weed control at 62 g/ha: 62 g ai/ha; for pest or weed control at 125 g/ha: 125 g ai/ha
Summary of the method: as §1

[8] = test system: wild mustard (Sinapis arvensis); conditions: Brassica, scale 0 to 100, read-out: Plant response rating, Mustard, Wild; for pest or weed control at 16 g/ha: 16 g ai/ha; for pest or weed control at 31 g/ha: 31 g ai/ha; for pest or weed control at 62 g/ha: 62 g ai/ha; for pest or weed control at 125 g/ha: 125 g ai/ha
Summary of the method: as §1

[9] = test system: spring wheat (Triticum aestivum); conditions: scale 0 to 100, read-out: Plant response rating, Wheat, Spring; for plant injury at 16 g/ha: 16 g ai/ha; for plant injury at 62 g/ha: 62 g ai/ha; for plant injury at 125 g/ha: 125 g ai/ha
Summary of the method: as §1

[10] = test system: galium (catchweed bedstraw, Galium aparine); conditions: scale 0 to 100, read-out: Plant response rating, Galium; for pest or weed control at 16 g/ha: 16 g ai/ha; for pest or weed control at 31 g/ha: 31 g ai/ha; for pest or weed control at 62 g/ha: 62 g ai/ha; for pest or weed control at 125 g/ha: 125 g ai/ha
Summary of the method: as §1

[11] = test system: oilseed rape (Brassica napus); conditions: scale 0 to 100, read-out: Plant response rating, Oilseed Rape; for plant injury at 16 g/ha: 16 g ai/ha; for plant injury at 31 g/ha: 31 g ai/ha; for plant injury at 62 g/ha: 62 g ai/ha; for plant injury at 125 g/ha: 125 g ai/ha
Summary of the method: as §1

[12] = post-emergence, 31 g ai/ha, Postemergence
[13] = post-emergence, Postemergence, scale 0 to 100, read-out: Plant response rating, Barley, Spring
[14] = pre-emergence, Preemergence, scale 0 to 100, read-out: Plant response rating, Barley, Spring

For `Fc1cccc(Oc2ncc(Br)cn2)c1-c1cc(C(F)F)no1` [Compound 145, 5-bromo-2-[2-[3-(difluoromethyl)-5-isoxazolyl]-3-fluorophenoxy]pyrimidine], the pest or weed control at 16 g/ha ([1]; post-emergence, Postemergence) was 65%, the pest or weed control at 31 g/ha ([1]; post-emergence, Postemergence) was 100% and the pest or weed control at 62 g/ha ([1]; post-emergence, Postemergence) was 90%. It also gave a pest or weed control at 125 g/ha ([1]; post-emergence, Postemergence) of 100%, a pest or weed control at 16 g/ha ([1]; pre-emergence, Preemergence) of 100% and a pest or weed control at 31 g/ha ([1]; pre-emergence, Preemergence) of 100%. The pest or weed control at 62 g/ha ([1]; pre-emergence, Preemergence) was 100%, the pest or weed control at 125 g/ha ([1]; pre-emergence, Preemergence) was 100% and the pest or weed control at 16 g/ha ([2]; post-emergence, Postemergence) was 100%. For the same compound, the pest or weed control at 31 g/ha ([2]; post-emergence, Postemergence) was 100%, the pest or weed control at 62 g/ha ([2]; post-emergence, Postemergence) was 100% and the pest or weed control at 125 g/ha ([2]; post-emergence, Postemergence) was 100%. For the same compound, the pest or weed control at 16 g/ha ([2]; pre-emergence, Preemergence) was 100%, the pest or weed control at 31 g/ha ([2]; pre-emergence, Preemergence) was 100% and the pest or weed control at 62 g/ha ([2]; pre-emergence, Preemergence) was 100%. For the same compound, the pest or weed control at 125 g/ha ([2]; pre-emergence, Preemergence) was 100%, the pest or weed control at 16 g/ha ([3]; post-emergence, Postemergence) was 100% and the pest or weed control at 31 g/ha [3, 12] was 100%. For the same compound, the pest or weed control at 62 g/ha ([3]; post-emergence, Postemergence) was 100%, the pest or weed control at 125 g/ha ([3]; post-emergence, Postemergence) was 100% and the pest or weed control at 16 g/ha ([3]; pre-emergence, Preemergence) was 95%. For the same compound, the pest or weed control at 62 g/ha ([3]; pre-emergence, Preemergence) was 100%, the pest or weed control at 125 g/ha ([3]; pre-emergence, Preemergence) was 100% and the pest or weed control at 16 g/ha ([4]; post-emergence, Postemergence) was 100%. It also gave a pest or weed control at 31 g/ha ([4]; post-emergence, Postemergence) of 100%, a pest or weed control at 62 g/ha ([4]; post-emergence, Postemergence) of 100% and a pest or weed control at 125 g/ha ([4]; post-emergence, Postemergence) of 100%. The pest or weed control at 16 g/ha ([4]; pre-emergence, Preemergence) was 100%, the pest or weed control at 31 g/ha ([4]; pre-emergence, Preemergence) was 100% and the pest or weed control at 62 g/ha ([4]; pre-emergence, Preemergence) was 85%. The pest or weed control at 125 g/ha ([4]; pre-emergence, Preemergence) was 100%, the pest or weed control at 16 g/ha ([5]; post-emergence, Postemergence) was 80% and the pest or weed control at 31 g/ha ([5]; post-emergence, Postemergence) was 85%. For the same compound, the pest or weed control at 62 g/ha ([5]; post-emergence, Postemergence) was 100%, the pest or weed control at 125 g/ha ([5]; post-emergence, Postemergence) was 95% and the pest or weed control at 16 g/ha ([5]; pre-emergence, Preemergence) was 100%. For the same compound, the pest or weed control at 31 g/ha ([5]; pre-emergence, Preemergence) was 100%, the pest or weed control at 62 g/ha ([5]; pre-emergence, Preemergence) was 100% and the pest or weed control at 125 g/ha ([5]; pre-emergence, Preemergence) was 100%. For the same compound, the plant injury at 16 g/ha [6, 13] was 15%, the plant injury at 31 g/ha [6, 13] was 15% and the plant injury at 62 g/ha [6, 13] was 20%. It also gave a plant injury at 125 g/ha ([6]; post-emergence, Postemergence, scale 0 to 100 (0 no effect, 100 complete control), read-out: Plant response rating, Barley, Spring) of 30%, a plant injury at 16 g/ha [6, 14] of 15% and a plant injury at 31 g/ha [6, 14] of 25%. The plant injury at 62 g/ha [6, 14] was 45%, the plant injury at 125 g/ha [6, 14] was 80% and the pest or weed control at 16 g/ha ([7]; post-emergence, Postemergence) was 20%. The pest or weed control at 31 g/ha ([7]; post-emergence, Postemergence) was 30%, the pest or weed control at 62 g/ha ([7]; post-emergence, Postemergence) was 30% and the pest or weed control at 125 g/ha ([7]; post-emergence, Postemergence) was 30%. It also gave a pest or weed control at 16 g/ha ([7]; pre-emergence, Preemergence) of 5%, a pest or weed control at 31 g/ha ([7]; pre-emergence, Preemergence) of 100% and a pest or weed control at 62 g/ha ([7]; pre-emergence, Preemergence) of 100%. The pest or weed control at 125 g/ha ([7]; pre-emergence, Preemergence) was 100%, the pest or weed control at 16 g/ha ([8]; post-emergence, Postemergence) was 100% and the pest or weed control at 31 g/ha ([8]; post-emergence, Postemergence) was 100%. For the same compound, the pest or weed control at 62 g/ha ([8]; post-emergence, Postemergence) was 100%, the pest or weed control at 125 g/ha ([8]; post-emergence, Postemergence) was 100% and the pest or weed control at 16 g/ha ([8]; pre-emergence, Preemergence) was 95%. The pest or weed control at 31 g/ha ([8]; pre-emergence, Preemergence) was 100%, the pest or weed control at 62 g/ha ([8]; pre-emergence, Preemergence) was 100% and the pest or weed control at 125 g/ha ([8]; pre-emergence, Preemergence) was 100%. For the same compound, the plant injury at 16 g/ha ([9]; post-emergence, Postemergence) was 30%, the plant injury at 31 g/ha [9, 12] was 35% and the plant injury at 62 g/ha ([9]; post-emergence, Postemergence) was 45%. It also gave a plant injury at 125 g/ha ([9]; post-emergence, Postemergence) of 55%, a plant injury at 16 g/ha ([9]; pre-emergence, Preemergence) of 15% and a plant injury at 62 g/ha ([9]; pre-emergence, Preemergence) of 20%. It also gave a plant injury at 125 g/ha ([9]; pre-emergence, Preemergence) of 70%, a pest or weed control at 16 g/ha ([10]; post-emergence, Postemergence) of 95% and a pest or weed control at 31 g/ha ([10]; post-emergence, Postemergence) of 95%. It also gave a pest or weed control at 62 g/ha ([10]; post-emergence, Postemergence) of 98%, a pest or weed control at 125 g/ha ([10]; post-emergence, Postemergence) of 100% and a pest or weed control at 16 g/ha ([10]; pre-emergence, Preemergence) of 25%. For the same compound, the pest or weed control at 31 g/ha ([10]; pre-emergence, Preemergence) was 100%, the pest or weed control at 62 g/ha ([10]; pre-emergence, Preemergence) was 100% and the pest or weed control at 125 g/ha ([10]; pre-emergence, Preemergence) was 100%. The plant injury at 16 g/ha ([11]; post-emergence, Postemergence) was 70%, the plant injury at 31 g/ha ([11]; post-emergence, Postemergence) was 100% and the plant injury at 62 g/ha ([11]; post-emergence, Postemergence) was 100%. The plant injury at 125 g/ha ([11]; post-emergence, Postemergence) was 100%, the plant injury at 16 g/ha ([11]; pre-emergence, Preemergence) was 50% and the plant injury at 31 g/ha ([11]; pre-emergence, Preemergence) was 100%. It also gave a plant injury at 62 g/ha ([11]; pre-emergence, Preemergence) of 100% and a plant injury at 125 g/ha ([11]; pre-emergence, Preemergence) of 100%.
